Measured values reported in patent US9561228B2 (Celgene Avilomics Research, Inc., priority 2013, dated 2017).
Like-named read-outs stand apart in the source and are kept apart here.

Assays:
[1] = tested on: ERK1/2 phosphorylation of p90RSK in A375 cells; assay: Detection of total and phosphor-RSK by MSD ELISA (A375); format: cell-based; settings: Homo sapiens, A-375, read-out: ERK1/ERK2 PRSK A375 EC50
Procedure: Detection of Total and Phosphor-RSK by MSD ELISA (A375)
(§1) The protocol below describes an assay to measure the kinase activity of ERK1/2 to phosphorylate a substrate, p90RSK, in the presence or absence of a test compound.
A375 cells were grown in DMEM/10% FBS. Twenty four hours prior to the assay, 50,000 cells per well were plated in a 96 well flat bottom plate. Once cells attached to the plate, the medium was replaced with 100 ul of DMEM/0.1% FBS. Cells were cultured overnight in an incubator at 37° C.
Compound stock solutions of 10 mM in DMSO were prepared. 1000× dilutions were then prepared in DMSO. 1 uL of DMSO solution was then transferred to 1 ml DMEM/0.1% FBS in a deep well plate. Cell plate media was discarded, followed by addition of 100 uL of the compound-containing media. The preparation was incubated at 37° C. for 2 hrs.
Cell lysates were prepared as described below.
pRSK or Total RSK MSD Assay
(§2) MSD plates: Blank MSD plates were coated with 30 uL capture antibody (BD 610226) at a final concentration of 1 ug/mL in PBS. Both pRSK and total RSK MSD assays used the same capture antibody at the same concentration. Antibody stock concentration was 250 ug/mL. Once antibody solution was added to the MSD plate, the sides were tapped to be certain it was coated completely (visual inspection). It was then covered and placed at 4° C. overnight on a level surface.
(§3) Block MSD Plate: The coating antibody was removed and the plate was washed on a plate washer in MSD wash buffer. The last bit of wash solution was tapped out and 150 uL/well of 3% BSA in MSD wash buffer was added in. The preparation was placed on a shaker at room temperature for at least an hour.
Add samples: Media was removed from compound-treated cells and replaced with 55 uL/well MSD cell lysis buffer containing protease and phosphotase I & II inhibitors. The preparation was incubated on a shaker in a cold room for 30-45 min. The blocked MSD plate was washed a on plate washer, tapping out the last bit of wash solution, followed by addition of 50 uL (of the 55 ul) cell lysate in a well-well transfer. The preparation was covered and incubated on a shaker at room temp for 2 hours. The lysate was removed, washed on a plate washer 3 times, and the last bit of wash buffer was tapped out and replace with 25 uL/well detection antibody (described below).
For pRSK detection, a pRSK antibody stock of 21 ug/mL was prepared as follows: 1 ug/mL pRSK Ser380 antibody (Cell Signaling Technology, Cat. #9335)+1:750 anti-rabbit SulfoTag (Mesoscale Discovery, Cat. # R32AB-1) in 1% BSA in MSD wash buffer.
(§4) For total RSK detection, a total RSK antibody stock of 200 ug/mL was prepared as follows: 1 ug/mL total RSK (Santa Cruz sc-231G) antibody+1:750 anti-goat SulfoTag (from MSD, R32AG-1) in 1% BSA in MSD wash buffer.
The plate was incubated for 1 hr at room temperature on a shaker, followed by three washings. The last bit of wash buffer was tapped out. 150 uL/well 1×MSD Read buffer was added and the plate was then analyzed.

MEK1 activated ERK1 = biological target: T1, MEK1 activated ERK1 (Homo sapiens, UniProt P27361); assay: Omnia continuous-read kinase assay for potency against MEK1 activated ERK1; format: biochemical
T1 construct: purchased Millipore (Billerica, Mass.) 14-439-K
T1 sequence (P27361 whole entry): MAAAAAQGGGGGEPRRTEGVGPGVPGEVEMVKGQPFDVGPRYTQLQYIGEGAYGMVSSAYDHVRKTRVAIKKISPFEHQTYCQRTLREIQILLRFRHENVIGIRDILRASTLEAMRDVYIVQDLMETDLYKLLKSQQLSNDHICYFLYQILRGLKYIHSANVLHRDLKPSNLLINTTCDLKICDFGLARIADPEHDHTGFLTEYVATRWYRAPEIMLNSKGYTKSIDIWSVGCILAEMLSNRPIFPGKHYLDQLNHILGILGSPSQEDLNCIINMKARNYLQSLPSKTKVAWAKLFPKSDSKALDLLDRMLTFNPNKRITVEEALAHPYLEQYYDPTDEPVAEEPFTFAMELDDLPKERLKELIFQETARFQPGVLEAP
Method in brief: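 Apparent IC50 came from initial reaction slopes (RFU vs time) plotted against log inhibitor with a variable-slope fit. Reactions were started with ERK1 (4 nM final) added to 50 μM ATP, roughly at its appKM, and 10 μM Sox-conjugated ST17 peptide in 20 mM Tris pH 7.5, 5 mM MgCl2. Fluorescence was monitored every 71 seconds.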

[2] = tested on: ERK1/2 phosphorylation of p90RSK in HCT116 cells; assay: Detection of total and phospho-RSK by MSD ELISA (HCT116); format: cell-based; settings: Homo sapiens, HCT-116, read-out: ERK1/ERK2 PRSK HCT116 EC50
Procedure: Detection of Total and Phospho-RSK by MSD ELISA (HCT116)
as §1
HCT116 cells were grown in RPMI/10% FBS. Prior to the assay, 50,000 cells per well were plated in a 96 well flat bottom plate. Cells were cultured overnight in an incubator at 37° C.
Compound stocks were 10 mM in DMSO. A 1000× dilution was made in DMSO. 1 uL of the DMSO solution was transferred to 1 ml RPMI/10% FBS in a deep well plate. Media in the cell plate was discarded, and 100 uL of the compound-containing media was added. The preparation was incubated at 37° C. for 2 hrs.
Preparation of cell lysates are described below.
pRSK or total RSK MSD Assay
as §2, with “to” for “to the”
as §3, with “uL/well” for “uL/well of”, “BSA (MSD Blocker A)” for “BSA”, “added.” for “added in.”
Add samples: Media was removed from compound-treated cells and replaced with 55 uL/well MSD cell lysis buffer containing protease and phosphotase I & II inhibitors. The preparations was incubate on a shaker in a cold room for 30-45 min. The blocked MSD plate was washed on a plate washer, and the last bit of wash solution was tapped out. Next was added 50 uL (of the 55 uL) cell lysate in a well-well transfer. The preparation was covered and incubated on shaker at room temp for 2 hours. The lysate was then removed and washed on plate washer 3 times. The last bit of wash buffer was then tapped out and replaced with 25 uL/well detection antibody (described below).
For pRSK detection, a pRSK antibody stock of 21 ug/mL was prepared as follows: 1 ug/mL pRSK Ser380 antibody (Cell Signaling Technology, Cat. #9335)+1:750 anti-rabbit SulfoTag (from MSD, R32AB-1) in 1% BSA in MSD wash buffer.
as §4
The plate was incubated for 1 hr at room temperature on a shaker, followed by three washes. The last bit of wash buffer was tapped out. Next, 150 uL/well 1×MSD Read buffer was added and the plate was analyzed by the MSD reader.

[3] = tested on: ERK1/2 phosphorylation of p90RSK in HT29 cells; assay: pRSK MSD Assay in HT29 cells; format: cell-based; settings: Homo sapiens, HT-29, read-out: ERK1/ERK2 PRSK MSD HT29 EC50
Method in brief: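 Phospho-RSK level, read by electrochemiluminescence on RSK-antibody-coated MSD plates with a phospho-RSK/Sulfo-tag detection pair, reports cellular ERK1/2 activity. HT29 cells, kept overnight in 0.1% FBS medium, were exposed to compound for 120 min at 37° C before lysis.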

SMILES	EC50 [1] [µM]	IC50 (MEK1 activated ERK1; MEK1 activated ERK1, ATP at KM, read-out: ERK1 Omnia WT ATP KM IC50) [µM]	EC50 [2] [µM]	EC50 [3] [µM]	IC50 (MEK1 activated ERK1; ATP at KM, WT) [µM]
C=CC(=O)Nc1cc(C)ccc1Nc1nc(N[C@H]2CCN(S(=O)(=O)C=C)C2)ncc1C(F)(F)F [Compound I-279, (S)—N-(5-Methyl-2-((5-(trifluoromethyl)-2-((1-(vinylsulfonyl)pyrrolidin-3-yl)amino)pyrimidin-4-yl)amino)phenyl)acrylamide]	> 1	0.501 to 0.999	> 1	–	–
C=CC(=O)Nc1cc(C)ccc1Nc1nc(Nc2cc(OC)nc(N3CCC3)c2)ncc1C(F)(F)F [Compound I-329, N-(2-((2-((2-(azetidin-1-yl)-6-methoxypyridin-4-yl)amino)-5-(trifluoromethyl)pyrimidin-4-yl)amino)-5-methylphenyl)acrylamide]	> 1	–	0.101 to 0.5	0.101 to 0.5	–
C=CC(=O)Nc1cc(C)ccc1Nc1nc(Nc2cc(OC)nc(N3CCC(O)CC3)c2)ncc1C(F)(F)F [Compound I-332, N-(2-((2-((2-(4-hydroxypiperidin-1-yl)-6-methoxypyridin-4-yl)amino)-5-(trifluoromethyl)pyrimidin-4-yl)amino)-5-methylphenyl)acrylamide]	0.101 to 0.5	–	0.101 to 0.5	< 0.1	–
C=CC(=O)Nc1cc(C)ccc1Nc1nc(Nc2cnnc(OC)c2)ncc1C(F)(F)F [Compound I-335, N-(2-((2-((6-methoxypyridazin-4-yl)amino)-5-(trifluoromethyl)pyrimidin-4-yl)amino)-5-methylphenyl)acrylamide]	0.501 to 0.999	–	0.501 to 0.999	0.501 to 0.999	–
C#CCOc1cc(C)c(Nc2ncc(C(F)(F)F)c(Nc3ccc(C)cc3NC(=O)C=C)n2)cc1C(N)=O [Compound I-362, 5-((4-((2-acrylamido-4-methylphenyl)amino)-5-(trifluoromethyl)pyrimidin-2-yl)amino)-4-methyl-2-(prop-2-yn-1-yloxy)benzamide]	0.501 to 0.999	–	> 1	0.501 to 0.999	–
C=CC(=O)Nc1cc(OCC(=O)N2CCN(C(C)=O)CC2)ccc1Nc1nc(Nc2cc(OC)ncc2C)ncc1C(F)(F)F [Compound I-404, N-(5-(2-(4-acetylpiperazin-1-yl)-2-oxoethoxy)-2-((2-((2-methoxy-5-methylpyridin-4-yl)amino)-5-(trifluoromethyl)pyrimidin-4-yl)amino)phenyl)acrylamide]	0.101 to 0.5	–	0.101 to 0.5	0.101 to 0.5	–
C=CC(=O)Nc1cc(OCC(=O)N2CCN(S(C)(=O)=O)CC2)ccc1Nc1nc(Nc2cc(OC)ncc2C)ncc1C(F)(F)F [Compound I-405, N-(2-((2-((2-methoxy-5-methylpyridin-4-yl)amino)-5-(trifluoromethyl)pyrimidin-4-yl)amino)-5-(2-(4-(methylsulfonyl)piperazin-1-yl)-2-oxoethoxy)phenyl)acrylamide]	0.101 to 0.5	–	< 0.1	< 0.1	–
C=CC(=O)Nc1cc(C)ccc1Nc1nc(Nc2cc(OC)ncc2OC)ncc1C(F)(F)F [Compound I-406, N-(2-((2-((2,5-dimethoxypyridin-4-yl)amino)-5-(trifluoromethyl)pyrimidin-4-yl)amino)-5-methylphenyl)acrylamide]	0.101 to 0.5	–	0.101 to 0.5	0.101 to 0.5	–
C=CC(=O)Nc1cc(C)ccc1Nc1nc(Nc2cc(OC)ncc2CO)ncc1C(F)(F)F [Compound I-428, N-(2-((2-((5-(hydroxymethyl)-2-methoxypyridin-4-yl)amino)-5-(trifluoromethyl)pyrimidin-4-yl)amino)-5-methylphenyl)acrylamide]	0.101 to 0.5	–	0.101 to 0.5	–	> 1
C=CC(=O)Nc1cc(C)ccc1Nc1nc(Nc2cc(OC)ncc2CF)ncc1C(F)(F)F [Compound I-429, N-(2-((2-((5-(fluoromethyl)-2-methoxypyridin-4-yl)amino)-5-(trifluoromethyl)pyrimidin-4-yl)amino)-5-methylphenyl)acrylamide]	0.101 to 0.5	–	0.501 to 0.999	–	> 1
C=CC(=O)Nc1cc(C)ccc1Nc1nc(Nc2cc(OC)nn2C)ncc1C(F)(F)F [Compound I-430, N-(2-((2-((3-methoxy-1-methyl-1H-pyrazol-5-yl)amino)-5-(trifluoromethyl)pyrimidin-4-yl)amino)-5-methylphenyl)acrylamide]	0.501 to 0.999	–	0.501 to 0.999	–	0.501 to 0.999
